Measurements: patent US20260262643A1, “HERBICIDAL BENZOXAZINES” (FMC CORPORATION, priority 2022, published 2026)

How the values were obtained:
[1] = tested on: galium; test: Test C postemergence; format: in vivo, Galium aparine; conditions: 10 days
Procedure, shortened: (§1)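 Pre: seeds in loam/sand, directed soil spray. Post: 1–2 leaf plants, 2–10 cm. Cmpd in non-phytotoxic solvent + surfactant. Greenhouse 10 d; visual rating vs untreated, 0 = none, 100 = complete control.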

[2] = tested on: barnyardgrass; test: Test C postemergence; format: in vivo, Echinochloa crusgalli; conditions: 10 days
Procedure, shortened: as §1

[3] = tested on: ragweed; test: Test C preemergence; format: in vivo, Ambrosia artemisiifolia; conditions: 0 to 100 scale (0 no effect, 100 complete control); for Ragweed plant response rating: preemergence
Procedure, shortened: as §1

[4] = tested on: corn; test: Test C preemergence; format: in vivo, Zea mays; conditions: 0 to 100 scale (0 no effect, 100 complete control); for Corn plant response rating: preemergence
Excerpt: (§2) Seeds of plant species selected from barnyardgrass (Echinochloa crusgalli), blackgrass (Alopecurus myosuroides), corn (Zea mays), foxtail, giant (giant foxtail, Setaria faberi), green foxtail (Setaria viridis), goosegrass (Eleusine indica), kochia (Bassia scoparia), oat, wild (wild oat, Avena fatua), pigweed, palmer (palmer amaranth, palmer pigweed, Amaranthus palmeri), Pigweed, Redroot (redroot pigweed, Amaranthus retroflexus), ragweed (common ragweed, Ambrosia artemisiifolia), ryegrass, Italian ([…] ryegrass, Lolium multiflorum), soybean (Glycine max), and wheat (Triticum aestivum) were planted into a blend of loam soil and sand and treated preemergence with a directed soil spray using test chemicals formulated in a non-phytotoxic solvent mixture which included a surfactant. At the same time, plants selected from these crops and weed species and also galium (catchweed bedstraw, Galium aparine) and horseweed (Erigeron canadensis) were planted in pots containing the same blend of loam soil and sand and treated with postemergence applications of test chemicals formulated in the same manner. Plants ranged in height from 2 to 10 cm and were in the one- to two-leaf stage for the postemergence treatment. Treated plants and untreated controls were maintained in a greenhouse for 10 days, after which time all treated plants were compared to untreated controls and visually evaluated for injury. Plant response ratings, summarized in Table C, are based on a 0 to 100 scale where 0 is no effect and 100 is complete control. A dash (-) response means no test result.

[5] = tested on: ryegrass, Italian; test: Test C preemergence; format: in vivo, Lolium multiflorum; conditions: 0 to 100 scale (0 no effect, 100 complete control); for Ryegrass, Italian plant response rating: preemergence
Procedure, shortened: as §1

[6] = tested on: blackgrass; test: Test C preemergence; format: in vivo, Alopecurus myosuroides; conditions: 0 to 100 scale (0 no effect, 100 complete control); for Blackgrass plant response rating: preemergence
Procedure, shortened: as §1

[7] = tested on: kochia; test: Test C preemergence; format: in vivo, Bassia scoparia; conditions: 0 to 100 scale (0 no effect, 100 complete control); for Kochia plant response rating: preemergence
Procedure, shortened: as §1

[8] = tested on: green foxtail; test: Test C postemergence; format: in vivo, Setaria viridis; conditions: 10 days
Procedure, shortened: as §1

[9] = tested on: ryegrass, Italian; test: Test C postemergence; format: in vivo, Lolium multiflorum; conditions: 10 days
Procedure, shortened: as §1

[10] = tested on: blackgrass; test: Test C postemergence; format: in vivo, Alopecurus myosuroides; conditions: 10 days
Procedure, shortened: as §1

[11] = tested on: soybean; test: Test C preemergence; format: in vivo, Glycine max; conditions: 0 to 100 scale (0 no effect, 100 complete control); for Soybean plant response rating: preemergence
Excerpt: as §2

[12] = tested on: kochia; test: Test C postemergence; format: in vivo, Bassia scoparia; conditions: 10 days
Procedure, shortened: as §1

[13] = tested on: horseweed; test: Test C postemergence; format: in vivo, Erigeron canadensis; conditions: 10 days
Procedure, shortened: as §1

[14] = tested on: pigweed, palmer; test: Test C postemergence; format: in vivo, Amaranthus palmeri; conditions: 10 days
Procedure, shortened: as §1

[15] = tested on: corn; test: Test C postemergence; format: in vivo, Zea mays; conditions: 10 days
Excerpt: as §2

[16] = tested on: wheat; test: Test C postemergence; format: in vivo, Triticum aestivum; conditions: 10 days
Excerpt: as §2

[17] = tested on: barnyardgrass; test: Test C preemergence; format: in vivo, Echinochloa crusgalli; conditions: 0 to 100 scale (0 no effect, 100 complete control); for Barnyardgrass plant response rating: preemergence
Procedure, shortened: as §1

[18] = tested on: oat, wild; test: Test C postemergence; format: in vivo, Avena fatua; conditions: 10 days
Excerpt: as §2

[19] = tested on: soybean; test: Test C postemergence; format: in vivo, Glycine max; conditions: 10 days
Excerpt: as §2

[20] = tested on: green foxtail; test: Test C preemergence; format: in vivo, Setaria viridis; conditions: 0 to 100 scale (0 no effect, 100 complete control); for Foxtail, Green plant response rating: preemergence
Procedure, shortened: as §1

[21] = tested on: pigweed, palmer; test: Test C preemergence; format: in vivo, Amaranthus palmeri; conditions: 0 to 100 scale (0 no effect, 100 complete control); for Pigweed, Palmer plant response rating: preemergence
Procedure, shortened: as §1

[22] = tested on: ragweed; test: Test C postemergence; format: in vivo, Ambrosia artemisiifolia; conditions: 10 days
Procedure, shortened: as §1

[23] = tested on: wheat; test: Test C preemergence; format: in vivo, Triticum aestivum; conditions: 0 to 100 scale (0 no effect, 100 complete control); for Wheat plant response rating: preemergence
Excerpt: as §2

[24] = tested on: oat, wild; test: Test C preemergence; format: in vivo, Avena fatua; conditions: 500 g ai/ha, preemergence; 0 to 100 scale (0 no effect, 100 complete control)
Excerpt: as §2

[25] = 125 g ai/ha, postemergence, 0 to 100 scale, 0 no effect, 100 complete control
[26] = Postemergence, 500 g ai/ha, visual 0 to 100 scale (0 no effect, 100 complete control)
[27] = Preemergence, 500 g ai/ha, visual rating after 10 days
[28] = Postemergence, 125 g ai/ha, 0 to 100 scale (0 no effect, 100 complete control)

`CCc1ncn(-c2cc(OC)cc(C(=O)N3C[C@H](C)Oc4c(Cl)cccc43)c2)n1` [Compound 164] was tested, and the “Plant response rating, Galium” value [1, 25] was 100, the “Plant response rating, Galium” value [1, 26] was 100 and the “Plant response rating, Barnyardgrass” value [2, 25] was 40. For the same compound, the “Plant response rating, Barnyardgrass” value [2, 26] was 50, the “Plant response rating, Ragweed” value [3, 27] was 60 and the “Ragweed plant response rating” value ([3]; Test C, 125 g ai/ha) was 70. For the same compound, the “Plant response rating, Corn” value [4, 27] was 30, the “Corn plant response rating” value ([4]; Test C, 125 g ai/ha) was 30 and the “Plant response rating, Ryegrass, Italian” value [5, 27] was 100. For the same compound, the “Ryegrass, Italian plant response rating” value ([5]; Test C, 125 g ai/ha) was 90, the “Plant response rating, Blackgrass” value [6, 27] was 80 and the “Blackgrass plant response rating” value ([6]; Test C, 125 g ai/ha) was 50. The “Plant response rating, Kochia” value [7, 27] was 100, the “Kochia plant response rating” value ([7]; Test C, 125 g ai/ha) was 40 and the “Plant response rating, Foxtail, Green” value [8, 25] was 50. The “Plant response rating, Foxtail, Green” value [8, 26] was 80, the “Plant response rating, Ryegrass, Italian” value [9, 25] was 50 and the “Plant response rating, Ryegrass, Italian” value [9, 26] was 90. For the same compound, the “Plant response rating, Blackgrass” value [10, 25] was 70, the “Plant response rating, Blackgrass” value [10, 26] was 90 and the “Plant response rating, Soybean” value [11, 27] was 100. For the same compound, the “Soybean plant response rating” value ([11]; Test C, 125 g ai/ha) was 90, the “Plant response rating, Kochia” value [12, 25] was 80 and the “Plant response rating, Kochia” value [12, 26] was 90. The “Plant response rating, Horseweed” value [13, 25] was 20, the “Plant response rating, Horseweed” value [13, 26] was 50 and the “Plant response rating, Pigweed, Palmer” value [14, 25] was 90. For the same compound, the “Plant response rating, Pigweed, Palmer” value [14, 26] was 100, the “Plant response rating, Corn” value [15, 25] was 30 and the “Plant response rating, Corn” value [15, 26] was 90. For the same compound, the “Plant response rating, Wheat” value [16, 25] was 30, the “Plant response rating, Wheat” value [16, 26] was 30 and the “Barnyardgrass plant response rating” value ([17]; 125 g ai/ha) was 50. The “Plant response rating, Barnyardgrass” value [17, 27] was 100, the “Plant response rating, Oat, Wild” value [18, 25] was 30 and the “Plant response rating, Oat, Wild” value [18, 26] was 50. The “Plant response rating, Soybean” value [19, 25] was 100, the “Plant response rating, Soybean” value [19, 26] was 100 and the “Plant response rating, Foxtail, Green” value [20, 27] was 100. The “Foxtail, Green plant response rating” value ([20]; Test C, 125 g ai/ha) was 100, the “Plant response rating, Pigweed, Palmer” value [21, 27] was 100 and the “Pigweed, Palmer plant response rating” value ([21]; Test C, 125 g ai/ha) was 100. For the same compound, the “Plant response rating, Ragweed” value [22, 25] was 50, the “Plant response rating, Ragweed” value [22, 26] was 90 and the “Plant response rating, Wheat” value [23, 27] was 60. For the same compound, the “Wheat plant response rating” value ([23]; Test C, 125 g ai/ha) was 20.

For `CCOC[C@H]1CN(C(=O)c2cc(-n3cnc(C(C)C)n3)cc3c2OCO3)c2cccc(Cl)c2O1` [40 0], the “Plant response rating, Barnyardgrass” value [2, 28] was 30, the “Ragweed plant response rating” value ([3]; 500 g ai/ha) was 70 and the “Corn plant response rating” value ([4]; 500 g ai/ha) was 0. For the same compound, the “Oat, Wild plant response rating” value [24] was 30, the “Ryegrass, Italian plant response rating” value ([5]; 500 g ai/ha) was 90 and the “Blackgrass plant response rating” value ([6]; 500 g ai/ha) was 50. The “Kochia plant response rating” value ([7]; 500 g ai/ha) was 90, the “Plant response rating, Foxtail, Green” value [8, 28] was 20 and the “Plant response rating, Ryegrass, Italian” value [9, 28] was 0. For the same compound, the “Plant response rating, Blackgrass” value [10, 28] was 40, the “Soybean plant response rating” value ([11]; 500 g ai/ha) was 100 and the “Plant response rating, Kochia” value [12, 28] was 70. For the same compound, the “Plant response rating, Horseweed” value [13, 28] was 40, the “Plant response rating, Pigweed, Palmer” value [14, 28] was 100 and the “Plant response rating, Corn” value [15, 28] was 30. The “Plant response rating, Wheat” value [16, 28] was 20, the “Barnyardgrass plant response rating” value ([17]; 500 g ai/ha) was 100 and the “Plant response rating, Oat, Wild” value [18, 28] was 0. The “Plant response rating, Soybean” value [19, 28] was 20, the “Foxtail, Green plant response rating” value ([20]; 500 g ai/ha) was 100 and the “Pigweed, Palmer plant response rating” value ([21]; 500 g ai/ha) was 100. The “Plant response rating, Ragweed” value [22, 28] was 60 and the “Wheat plant response rating” value ([23]; 500 g ai/ha) was 40.
